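96-well plates; 48 h exposure; 5 concentrations. Endpoints by linear interpolation between flanking doses. Not reached: highest tested concentration assigned. GI50 = concentration required for 50% inhibition of growth.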 Active and inactive are the calls of the source. Cut-off read from the data, not from the text of the source: active = GI50 up to about 1.1 µM and inactive = higher.
Assays:
Experiment in all cases: inhibition of tumour cell growth, NCI panel, 48 h
[1] = tested on: PC-3
[2] = tested on: DU-145
[3] = tested on: UACC-257
[4] = tested on: NCI-H460
[5] = tested on: CAKI-1
[6] = tested on: MDA-MB-435
[7] = tested on: OVCAR-5
[8] = tested on: SK-MEL-5
[9] = tested on: M14
[10] = tested on: SW-620
[11] = tested on: IGROV-1
[12] = tested on: T47D
[13] = tested on: SNB-19
[14] = tested on: SF-268
[15] = tested on: OVCAR-8
[16] = tested on: LOX IMVI
[17] = tested on: EKVX
[18] = tested on: OVCAR-4
[19] = tested on: HCT-116
[20] = tested on: HOP-62

Measured: GI50

O=C1/C(=C/c2cccc(O)c2)COc2ccccc21
inactive: [1] 7.83 µM | [2] 14.2 µM | [3] 2.64 µM | [4] 20.8 µM | [5] 3.44 µM | [6] 5.73 µM | [7] 8.67 µM | [8] 9.2 µM | [9] 4.27 µM | [10] 2.19 µM | [11] 7.96 µM | [12] 6.47 µM | [13] 7.11 µM | [14] 18.4 µM | [15] 7.38 µM | [16] 1.95 µM | [17] 16.5 µM | [18] 5.32 µM | [19] 1.75 µM | [20] 15 µM

Cc1ccc(S(=O)(=O)NC(=O)C2C(=O)CC3(CCCCC3)CC2=O)cc1
inactive: [1] 25.6 µM | [2] 37.5 µM | [3] 28.6 µM | [4] 25.2 µM | [5] 26.4 µM | [6] 32.1 µM | [7] 24.4 µM | [8] 25.4 µM | [9] 34.5 µM | [10] 27.6 µM | [11] 29.4 µM | [12] 20 µM | [13] 41.5 µM | [14] 34.8 µM | [15] 27.7 µM | [16] 55.2 µM | [17] 25.4 µM | [18] 32.4 µM | [19] 25.9 µM | [20] 25.4 µM

CN(C)CCCNc1ccnc2cccc([N+](=O)[O-])c12
inactive: [1] 14.3 µM | [2] 29 µM | [3] 19.1 µM | [4] 6.5 µM | [5] 13.3 µM | [6] 15.3 µM | [7] 23 µM | [8] 10.4 µM | [9] 7.05 µM | [10] 17.2 µM | [11] 12.1 µM | [12] 34.3 µM | [13] 19.6 µM | [14] 16.4 µM | [15] 22 µM | [16] 13.6 µM | [17] 13.6 µM | [18] 6.18 µM | [19] 13.7 µM | [20] 18.1 µM

O=C1c2cc([N+](=O)[O-])ccc2-c2cccc(F)c21
inactive: [1] 73.8 µM | [2] > 100 µM | [3] 65.3 µM | [4] 89.3 µM | [5] > 100 µM | [6] 76.7 µM | [7] > 100 µM | [8] 70.6 µM | [9] > 100 µM | [10] 48.3 µM | [11] 40.7 µM | [12] 23.2 µM | [13] > 100 µM | [14] 44.3 µM | [15] 43.1 µM | [16] 60 µM | [17] 18.9 µM | [18] > 100 µM | [19] 67.6 µM | [20] > 100 µM

COc1cc2ncnc(NS(=O)(=O)c3cc4ccccc4s3)c2cc1OC
inactive: [1] > 100 µM | [2] > 100 µM | [3] > 100 µM | [4] > 100 µM | [5] > 100 µM | [6] > 100 µM | [7] > 100 µM | [8] > 100 µM | [9] > 100 µM | [10] > 100 µM | [11] 81.5 µM | [12] 25.2 µM | [13] > 100 µM | [14] > 100 µM | [15] > 100 µM | [16] > 100 µM | [17] 75 µM | [18] 92.7 µM | [19] > 100 µM | [20] > 100 µM

N#CC1=C(N)OC2=C(CCCc3ccc([N+](=O)[O-])cc32)C1c1ccccc1 (stereo not given)
inactive: [1] 8.3 µM | [2] 4.86 µM | [3] 5.13 µM | [4] 4.49 µM | [5] 9.25 µM | [6] 1.42 µM | [7] 11 µM | [8] 3.38 µM | [9] 3.13 µM | [10] 3.63 µM | [11] 4.19 µM | [12] 6.24 µM | [13] 5.86 µM | [14] 5.41 µM | [15] 7.48 µM | [16] 5.35 µM | [17] 6.19 µM | [18] 6.41 µM | [19] 4.23 µM | [20] 4.17 µM

Cc1ccc(S(=O)(=O)N/N=C2\CC(C)OC3=C2CCCCCC3)cc1 (stereo not given)
inactive: [1] 19.2 µM | [2] 19.4 µM | [3] 18.7 µM | [4] > 100 µM | [5] 25.9 µM | [6] 18.5 µM | [7] 19.5 µM | [8] 16.9 µM | [9] 20.3 µM | [10] 20.5 µM | [11] 19.1 µM | [12] 76.6 µM | [13] 22.2 µM | [14] 19.9 µM | [15] 21.2 µM | [16] 18.7 µM | [17] 15.2 µM | [18] 19.8 µM | [19] 16.5 µM | [20] 18.5 µM
